Test results from US20120107323A1, “KINASE PROTEIN BINDING INHIBITORS” (University of Florida, priority 2009, published 2012).

Experiments:
C8161 melanoma cells = assay: Detachment assay, C8161 cells; type: cell-based, human; details: C8161, 5 μM, 72 h
Description: In detachment assays, detached and attached cells were harvested separately and counted in a hemocytometer. The percentage of detachment was calculated by dividing the number of detached cells by the total number of cells.
Detachment assay: Cells were plated with and without compound for 24, 48, and 72 h, and detached and attached cells were counted in a hemocytometer. The percent of detachment was calculated by dividing the number of detached cells by the total number of cells and experiments performed in triplicate. Apoptosis assays: After treatment, attached and detached cells were collected, counted and prepared for terminal uridine deoxynucleotidyl transferase (TUNEL) assay by utilizing an APO-BRDU kit (BD Pharmingen, San Diego, Calif.) and cells analyzed with a FACSCalibur cytometer (Becton Dickinson, San Jose, Calif.). In addition, apoptotic cells were analyzed with Hoechst 33342 staining (1 μg/ml). The percent of apoptotic cells was calculated as the ratio of apoptotic cells to total number of cells.

MCF7 breast cancer cells = assay: Cell viability (MTT), MCF7; type: cell-based; details: Homo sapiens; MCF7, 72 hours; read-out: IC50 of INT2-31, cell viability
Description: (§1) Cell viability (MTT) and CFSE Proliferation assay: Cells were plated in 96-well plates and let adhere overnight. After cell treatment, cell viability was measured by 3-(4,5-dimethylthiazol-2-yl)-2,5-diphenyl tetrazolium bromide (MTT) assay (CellTiter 96® Aqueous, Promega, Madison, Wis.).
(§2) Cell viability and detachment assays: After cells were treated with siRNA transfection, cell viability was measured by 3-(4,5-dimethylthiazol2-yl)-2,5-diphenyl tetrazolium bromide (MTT) assay (CellTiter 96® AQueous, Promega, Madison, Wis.). Briefly, 20 μl of the tetrazolium compound was added to each well. The cells were then incubated at 37° C. for 1 h. The plate was read at 490 nm with a plate reader to determine the viability. In detachment assays, detached and attached cells were harvested separately and counted in a hemocytometer. The percentage of detachment was calculated by dividing the number of detached cells by the total number of cells. Apoptosis assays: After treatment, attached and detached cells were collected, counted and prepared for terminal uridine deoxynucleotidyl transferase (TUNEL) assay by utilizing an APO-BRDU kit (BD Pharmingen, San Diego, Calif.) according to the manufacturer's instructions. Stained cells were analyzed with a fluorescence-activated cell sorting-Calibur flow cytometer (BD Biosciences). […] Apoptotic cells were also analyzed by Hoechst staining. […]

normal human melanocytes = assay: Cell viability (MTT), melanocytes; type: cell-based; details: Melanocyte, Melonocyte, 72 hours, read-out: IC50 of INT2-31, cell viability
Description: as §1, §2

[1] = tested on: PARP, caspase-9, caspase 8; assay: Western blot of biochemical markers of the apoptotic pathway; type: cell-based
[2] = tested on: KYSE140 esophageal cancer cells; assay: Cell viability (MTT), KYSE140; type: cell-based
Description: as §1
(§3) Cell viability and detachment assays: After cells were treated with siRNA transfection, cell viability was measured by 3-(4,5-dimethylthiazol2-yl)-2,5-diphenyl tetrazolium bromide (MTT) assay (CellTiter 96® AQueous, Promega, Madison, Wis.). Briefly, 20 μl of the tetrazolium compound was added to each well. The cells were then incubated at 37° C. for 1 h. The plate was read at 490 nm with a plate reader to determine the viability. In detachment assays, detached and attached cells were harvested separately and counted in a hemocytometer. The percentage of detachment was calculated by dividing the number of detached cells by the total number of cells. Apoptosis assays: After treatment, attached and detached cells were collected, counted and prepared for terminal uridine deoxynucleotidyl transferase (TUNEL) assay by utilizing an APO-BRDU kit (BD Pharmingen, San Diego, Calif.) according to the manufacturer's instructions. Stained cells were analyzed with a fluorescence-activated cell sorting-Calibur flow cytometer (BD Biosciences). Calculation of the percentage of apoptotic cells in the sample was completed with CellQuest software (BD Biosciences). Apoptotic cells were also analyzed by Hoechst staining. Hoechst 33342 ([…]) was added to the fixed cells and the specimens were mounted on glass coverslips. The slides were viewed under the Zeiss microscope for apoptotic nuclei. The percent of apoptotic cells was calculated as the ratio of apoptotic cells to total number of cells.
(§4) In addition, the effect of INT2-31 on cell viability of esophageal, pancreatic and breast cancer cell lines was analyzed and the IC50 value for each cell line was determined, as shown in Table 1. […] Similar to melanoma results, INT2-31 inhibits viability more in cancer cells compared to normal cells. Sensitivity of the cells to INT2-31 varied and directly correlated to the FAK and IGF-1R expression level of the cells.

[3] = tested on: BT474 breast cancer cells; assay: Cell viability (MTT), BT474; type: cell-based; details: Homo sapiens, BT-474; BT474, 72 hours; read-out: IC50 of INT2-31, cell viability
Description: as §1, §2

MCF10A cells = assay: Cell viability (MTT), MCF10A; type: cell-based; details: Homo sapiens, MCF-10A, 72 hours, read-out: IC50 of INT2-31, cell viability
Description: as §1, §2

[4] = tested on: KYSE70 esophageal cancer cells; assay: Cell viability (MTT), KYSE70; type: cell-based
Description: as §1, §3, §4

A375 melanoma cells = assay: CFSE cell proliferation assay, A375; type: cell-based, human
Description: For staining with CFSE (Molecular Probes, Eugene, Oreg.)., 1×10^7/ml cells were suspended in PBS and incubated at 37° C. for 5 min with the 10 μM of CFSE. Stained cells were cultured with medium alone or with inhibitor for 24, 48, and 72 hours, fixed and analyzed by a FACS Calibur cytometer (Becton Dickinson, San Jose, Calif.).

SK-MEL-28 melanoma cells = assay: Cell viability (MTT), SK-MEL-28; type: cell-based; details: Homo sapiens; SK-MEL-28, 72 hours; read-out: IC50 of INT2-31, cell viability
Description: as §1, §2

CSc1ncnc2c1ccn2C1O[C@H](COP(=O)(O)O)[C@@H](O)[C@H]1O (stereo partly drawn) [INT2-31, 4-(Methylthio)-7-(5-O-phosphono-D-ribofuranosyl)-{7H-Pyrrolo[2,3-d]pyrimidine}]
cells detached from the plate (C8161 melanoma cells): 7%
IC50 (MCF7 breast cancer cells): 0.03 µM
IC50 (normal human melanocytes): 97.3 µM
PARP and caspase-9 cleavage ([1]; 48 hours of treatment): PARP and caspase-9 cleavage
caspase 8 levels ([1]; Western blot): no significant effect
IC50 ([2]; Homo sapiens, KYSE-140, KYSE140, 72 hours, read-out: IC50 of INT2-31, cell viability): 2.5 µM
effect of combination with 5-FU on cell viability ([2]; KYSE 140, 0.5 and 1 μM INT2-31): synergistic effects
sensitivity of cells to single-agent treatment ([2]; KYSE 140, 72 hours): sensitive
IC50 [3]: 2.39 µM
IC50 (MCF10A cells): 100 µM
IC50 ([4]; Homo sapiens, KYSE-70, KYSE70, 72 hours, read-out: IC50 of INT2-31, cell viability): 4.6 µM
effect of combination with 5-FU on cell viability ([4]; KYSE 70, 0.5 and 1 μM INT2-31): synergistic effects
sensitivity of cells to single-agent treatment ([4]; KYSE 70, 72 hours): sensitive
cell proliferation (CSFE) (A375 melanoma cells): inhibited cell proliferation
IC50 (SK-MEL-28 melanoma cells): 22.1 µM
